{
  "source": "patent US20110313034A1",
  "about": "“NEUROACTIVE PLANT EXTRACT FROM HYPERICUM POLYANTHEMUM” (UNIVERSIDADE FEDERAL DO RIO GRANDE DO SUL, priority 2009, published 2011)",
  "key": {"monoamine oxidase A": {"target": "T1, monoamine oxidase A (Rattus norvegicus, UniProt P21396)", "T1 construct": "in preparations of mitochondria from rat brain; from tissue; host or cells: rat brain mitochondria", "T1 sequence (P21396 1-526)": "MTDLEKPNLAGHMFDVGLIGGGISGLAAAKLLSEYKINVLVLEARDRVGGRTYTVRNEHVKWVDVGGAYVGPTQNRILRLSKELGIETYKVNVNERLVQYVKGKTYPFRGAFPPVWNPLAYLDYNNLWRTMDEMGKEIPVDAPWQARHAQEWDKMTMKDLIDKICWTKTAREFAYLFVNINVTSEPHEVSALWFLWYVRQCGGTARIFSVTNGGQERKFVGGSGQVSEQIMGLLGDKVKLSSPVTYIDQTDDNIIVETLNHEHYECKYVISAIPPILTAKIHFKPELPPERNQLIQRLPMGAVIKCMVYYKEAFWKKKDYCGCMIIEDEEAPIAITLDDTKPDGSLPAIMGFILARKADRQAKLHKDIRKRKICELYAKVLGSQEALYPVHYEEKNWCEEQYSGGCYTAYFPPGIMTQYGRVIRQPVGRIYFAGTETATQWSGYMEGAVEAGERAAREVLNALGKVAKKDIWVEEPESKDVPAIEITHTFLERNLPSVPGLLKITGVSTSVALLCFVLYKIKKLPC", "conditions": "mitochondria from rat brain; cited from earlier work"}, "[1]": {"target": "T2, synaptosomal reuptake of serotonin ([3H]-5HT) (Rattus norvegicus, UniProt P31652)", "T2 sequence (P31652 whole entry)": "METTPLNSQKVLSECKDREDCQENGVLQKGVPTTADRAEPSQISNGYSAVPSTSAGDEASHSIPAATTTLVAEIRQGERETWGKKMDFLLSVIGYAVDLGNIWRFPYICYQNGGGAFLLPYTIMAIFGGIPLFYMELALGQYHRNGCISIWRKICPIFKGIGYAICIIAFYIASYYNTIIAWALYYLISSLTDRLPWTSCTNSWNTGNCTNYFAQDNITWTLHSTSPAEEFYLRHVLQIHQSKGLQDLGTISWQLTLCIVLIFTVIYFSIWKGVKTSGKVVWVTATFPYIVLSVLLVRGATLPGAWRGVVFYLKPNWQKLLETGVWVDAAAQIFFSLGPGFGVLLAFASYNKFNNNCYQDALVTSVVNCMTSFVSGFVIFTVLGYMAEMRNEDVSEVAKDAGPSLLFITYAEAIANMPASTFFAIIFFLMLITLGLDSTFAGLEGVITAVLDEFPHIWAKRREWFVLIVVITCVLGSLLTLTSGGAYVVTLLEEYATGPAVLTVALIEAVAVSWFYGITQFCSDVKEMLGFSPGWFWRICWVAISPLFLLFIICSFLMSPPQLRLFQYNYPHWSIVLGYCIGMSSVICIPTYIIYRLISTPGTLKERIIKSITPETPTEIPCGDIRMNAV", "test": "synaptosomal reuptake of serotonin ([3H]-5HT), frontal cortex synaptosomes", "type": "biochemical", "design": "in synaptosomes prepared from striatum, hypothalamus and frontal cortex, respectively; from tissue; host or cells: frontal cortex (synaptosomes; membranes)", "conditions": "synaptosomes from frontal cortex; HP4 3×10^−4-3×10^−11 g/mL; read-out: IC50, synaptosomal uptake of 5-HT", "from_the_text": "(§1) The effect of HP4 (3×10^−4-3×10^−11 g/mL) on synaptosomal reuptake of dopamine ([^3H]-DA), noradrenaline ([^3H]-NA) and serotonin ([^3H]-5HT) in synaptosomes prepared from striatum, hypothalamus and frontal cortex, respectively. […] This profile differs from other antidepressants, which inhibit the reuptake of monoamines through competition for binding site on the transporter."}, "sites of uptake of DA": {"target": "T3, sites of uptake of DA (Rattus norvegicus, UniProt P23977)", "T3 construct": "in synaptosomes prepared from striatum, hypothalamus and frontal cortex, respectively; from tissue; host or cells: striatum (synaptosomes; membranes)", "T3 sequence (P23977 whole entry)": "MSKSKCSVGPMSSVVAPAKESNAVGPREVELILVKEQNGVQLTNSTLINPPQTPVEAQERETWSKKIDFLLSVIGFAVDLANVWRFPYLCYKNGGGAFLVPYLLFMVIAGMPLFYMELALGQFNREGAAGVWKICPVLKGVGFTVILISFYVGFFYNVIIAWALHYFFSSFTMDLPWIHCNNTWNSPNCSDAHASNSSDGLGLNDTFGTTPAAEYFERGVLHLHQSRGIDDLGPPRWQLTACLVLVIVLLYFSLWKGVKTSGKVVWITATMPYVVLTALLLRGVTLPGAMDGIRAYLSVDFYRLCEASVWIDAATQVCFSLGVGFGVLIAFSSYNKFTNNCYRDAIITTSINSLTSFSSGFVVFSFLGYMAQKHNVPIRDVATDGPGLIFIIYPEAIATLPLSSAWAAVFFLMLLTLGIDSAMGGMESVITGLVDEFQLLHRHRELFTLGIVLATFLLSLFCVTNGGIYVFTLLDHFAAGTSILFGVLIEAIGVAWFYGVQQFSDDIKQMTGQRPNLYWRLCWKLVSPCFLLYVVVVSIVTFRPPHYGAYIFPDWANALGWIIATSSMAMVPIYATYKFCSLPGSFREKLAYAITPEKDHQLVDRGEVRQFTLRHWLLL", "test": "binding of [3H]-mazindol to sites of uptake of DA, striatum membranes", "conditions": "3×10^−7-3×10^−11 g/mL"}, "immobility time of mice": {"test_system": "immobility time of mice", "test": "Porsolt's forced swimming test (FST) in mice", "type": "in vivo, CF1 mice", "conditions": "90 mg/kg, p.o.", "experimental": "The species H. caprifoliatum, H. carinatum, H. connatum, H. myrianthum, H. piriai, H. polyanthemum and H. cordatum, and three isolated benzopyrans of H. polyanthemum (HP1, HP2, and HP3) were tested for inhibitory activity of monoamine oxidase A and B in preparations of mitochondria from rat brain.\nResults are expressed as mean±SEM. * Significant difference compared to the SAL group (water+polysorbate 80, 5%, 1 ml/kg, p.o.) # significant difference compared to POL270 (ANOVA F(7,79)=5.9, p<0.001).\nResults are expressed as mean±SEM. *Significant difference compared to the SAL group (water+polysorbate 80, 5%, 1 ml/kg, p.o.) (ANOVA, F(2,29)=15.5, p<0.001).\nPOL was active in rats (270 mg/kg/day, p.o.) and mice (180, 270 and 360 mg/kg, p.o.). The action of POL in the FST was blocked by administration of SCH 23390 (dopamine D1 antagonist) […], i.p., and sulpiride (D2 dopamine antagonist) 50 mg/kg, ip, (FIG. 1). HP4 was active at a dose of 90 mg/kg, p.o. in mice (FIG. 2)."}, "[2]": {"target": "T4, synaptosomal reuptake of noradrenaline ([3H]-NA) (Rattus norvegicus, UniProt Q9WTR4)", "T4 sequence (Q9WTR4 1-597)": "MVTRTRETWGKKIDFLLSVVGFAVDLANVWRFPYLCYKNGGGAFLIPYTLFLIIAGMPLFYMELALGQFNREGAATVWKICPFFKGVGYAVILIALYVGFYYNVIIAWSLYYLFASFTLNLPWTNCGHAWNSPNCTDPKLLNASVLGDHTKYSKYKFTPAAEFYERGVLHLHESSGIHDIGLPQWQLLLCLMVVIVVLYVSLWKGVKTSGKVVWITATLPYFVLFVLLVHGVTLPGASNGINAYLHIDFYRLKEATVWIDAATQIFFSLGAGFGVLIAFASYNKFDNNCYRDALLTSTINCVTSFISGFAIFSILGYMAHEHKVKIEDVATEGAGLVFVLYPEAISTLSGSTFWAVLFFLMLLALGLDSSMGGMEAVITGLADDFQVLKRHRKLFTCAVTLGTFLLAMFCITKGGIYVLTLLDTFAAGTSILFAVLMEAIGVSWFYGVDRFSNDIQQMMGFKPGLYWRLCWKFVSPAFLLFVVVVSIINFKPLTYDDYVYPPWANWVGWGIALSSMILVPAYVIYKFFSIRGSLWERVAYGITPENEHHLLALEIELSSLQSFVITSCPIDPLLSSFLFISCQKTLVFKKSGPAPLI", "test": "synaptosomal reuptake of noradrenaline ([3H]-NA), hypothalamus synaptosomes", "type": "biochemical", "design": "in synaptosomes prepared from striatum, hypothalamus and frontal cortex, respectively; from tissue; host or cells: hypothalamus (synaptosomes; membranes)", "conditions": "synaptosomes from hypothalamus; HP4 3×10^−4-3×10^−11 g/mL; read-out: IC50, synaptosomal uptake of NA", "from_the_text": "as §1"}, "[3]": {"target": "T5, synaptosomal reuptake of dopamine ([3H]-DA) (Rattus norvegicus, UniProt P23977)", "T5 sequence (P23977 whole entry)": "as the sequence (P23977 whole entry) above", "test": "synaptosomal reuptake of dopamine ([3H]-DA), striatum synaptosomes", "type": "biochemical", "design": "in synaptosomes prepared from striatum, hypothalamus and frontal cortex, respectively; from tissue; host or cells: striatum (synaptosomes; membranes)", "from_the_text": "as §1"}, "sites of uptake of 5-HT": {"target": "T6, sites of uptake of 5-HT (Rattus norvegicus, UniProt P31652)", "T6 construct": "in synaptosomes prepared from striatum, hypothalamus and frontal cortex, respectively; from tissue; host or cells: frontal cortex (synaptosomes; membranes)", "T6 sequence (P31652 whole entry)": "as the sequence (P31652 whole entry) above", "test": "binding of [3H]-citalopram to sites of uptake of 5-HT, frontal cortex membranes", "conditions": "3×10^−7-3×10^−11 g/mL"}, "G proteins": {"test_system": "G proteins", "test": "direct incubation of membranes with HP4, [35S]GTPγS binding", "type": "biochemical, rats", "experimental": "To evaluate the effect of POL on DA, NA, 5-HT and opioids receptors, we used the technique of binding of [^35S] GTPγS stimulated by DA, NA, 5-HT and DAMGO in membranes prepared from striatum, hypothalamus, frontal cortex and thalamus of rats, respectively. […] GTPγS stimulated by DA, NA and 5-HT, while 5 days of treatment with 90 mg/kg, decreases this binding. […] This time profile of action coincides with the modern theories that the antidepressant effect is related to neuroadaptation processes.\nGTPγS to its site. […] These changes can occur through other regulatory mechanisms or are related to HP4 metabolites produced after administration in vivo of POL. […] GTPγS stimulated by agonists after different treatment regimens with saline and POL."}, "sites of uptake of NA": {"target": "T7, sites of uptake of NA (Rattus norvegicus, UniProt Q9WTR4)", "T7 construct": "in synaptosomes prepared from striatum, hypothalamus and frontal cortex, respectively; from tissue; host or cells: hypothalamus (synaptosomes; membranes)", "T7 sequence (Q9WTR4 1-597)": "as the sequence (Q9WTR4 1-597) above", "test": "binding of [3H]-nisoxetina to sites of uptake of NA, hypothalamus membranes", "conditions": "3×10^−7-3×10^−11 g/mL"}, "corticosterone": {"test_system": "corticosterone", "test": "serum and cortical corticosterone in mice subjected to forced swimming (radioimmunoassay)", "type": "in vivo", "conditions": "three days of treatment, POL 360 mg/kg p.o., imipramine 20 mg/kg, bupropion 30 mg/kg; for serum levels of corticosterone: forced swimming", "experimental": "Data are presented as mean±SEM. *p<0.01 compared to respective group without swimming; #p<0.01 compared to SAL with swimming. Legend: (A) X axis—corticosterone levels (μg/100 mL plasma); Blank values: no swimming; values hatch: with swim, (B) X axis—cortical Corticosterone (pg/100 mg tissue).\nWe evaluated the action of POL (360 mg/kg, p.o.) on serum and cortical levels of corticosterone in mice subjected or not to stress caused by forced swimming. The concentration of corticosterone present in the samples was measured by radioimmunoassay."}, "[4]": {"test_system": "synatosomal reuptake of GABA", "conditions": "in vitro; cited from earlier work"}, "[5]": {"target": "T4, synaptosomal reuptake of noradrenaline ([3H]-NA)", "conditions": "in vitro; cited from earlier work"}, "[6]": {"test_system": "synatosomal reuptake of glutamate", "conditions": "in vitro; cited from earlier work"}, "[7]": {"target": "T2, synaptosomal reuptake of serotonin ([3H]-5HT)", "conditions": "in vitro; cited from earlier work"}, "[8]": {"target": "T5, synaptosomal reuptake of dopamine ([3H]-DA)", "conditions": "in vitro; cited from earlier work"}},
  "data": [
    {"compound": "COc1cc2c(c(O)c1C(=O)C(C)C)C=CC(C)(C)O2", "note": "[HP3, 5-hydroxy-6-isobutyryl-7-methoxy-2,2-dimethyl-benzopyran]", "values": [
      {"measurement": "IC50", "setting": "monoamine oxidase A", "result": 22200, "unit": "nM"}
    ]},
    {"compound": "CC(C)C(=O)C1=C(O)C(C)(C)C(O)=C(Cc2c(O)c3c(c(C(=O)C(C)C)c2O)OC(C)(C)C=C3)C1=O", "note": "[HP4, uliginosin B]", "values": [
      {"measurement": "IC50", "setting": "[1]", "result": "252 ± 13", "unit": "nM"},
      {"measurement": "effect on binding of [3H]-mazindol to sites of uptake of DA", "setting": "sites of uptake of DA", "result": "did not affect the binding"},
      {"measurement": "activity in forced swimming test", "setting": "immobility time of mice", "result": "active"},
      {"measurement": "IC50", "setting": "[2]", "result": "280 ± 48", "unit": "nM"},
      {"measurement": "IC50 for dopamine relative to IC50 for NA and 5-HT (reuptake selectivity)", "setting": "[3]; in vitro synaptosomal reuptake", "result": "almost three times smaller"},
      {"measurement": "IC50", "setting": "[3]; synaptosomes from striatum, HP4 3×10^−4-3×10^−11 g/mL, read-out: IC50, synaptosomal uptake of DA", "result": "90 ± 38", "unit": "nM"},
      {"measurement": "effect on binding of [3H]-citalopram to sites of uptake of 5-HT", "setting": "sites of uptake of 5-HT", "result": "did not affect the binding"},
      {"measurement": "effect on binding of [35S]GTPγS to its site", "setting": "G proteins", "result": "did not alter the binding"},
      {"measurement": "effect on binding of [3H]-nisoxetina to sites of uptake of NA", "setting": "sites of uptake of NA", "result": "did not affect the binding"}
    ]},
    {"compound": "CC(NC(C)(C)C)C(=O)c1cccc(Cl)c1", "note": "(stereo not shown) [bupropion]", "values": [
      {"measurement": "level of cortical corticosterone raised by forced swimming", "setting": "corticosterone", "result": "alters both serum and cortical levels"},
      {"measurement": "serum levels of corticosterone", "setting": "corticosterone", "result": "alters both serum and cortical levels"}
    ]},
    {"compound": "CN(C)CCCN1c2ccccc2CCc2ccccc21", "note": "[imipramine]", "values": [
      {"measurement": "level of cortical corticosterone raised by forced swimming", "setting": "corticosterone", "result": "alters both serum and cortical levels"},
      {"measurement": "serum levels of corticosterone", "setting": "corticosterone", "result": "alters both serum and cortical levels"}
    ]},
    {"compound": "hyperforin", "values": [
      {"measurement": "inhibition of synaptosomal reuptake of GABA", "setting": "[4]", "result": "inhibits"},
      {"measurement": "inhibition of synaptosomal reuptake of norepinephrine", "setting": "[5]", "result": "inhibit"},
      {"measurement": "inhibition of synaptosomal reuptake of glutamate", "setting": "[6]", "result": "inhibits"},
      {"measurement": "inhibition of synaptosomal reuptake of serotonin", "setting": "[7]", "result": "inhibit"},
      {"measurement": "inhibition of synaptosomal reuptake of dopamine", "setting": "[8]", "result": "inhibit"}
    ]}
  ]
}
